Measured values as given in patent US10111874B2, “Combination therapies for treatment of cancer” (Araxes Pharma LLC, priority 2014, dated 2018).

What follows are compounds tested against T1, KRAS G12C 1-169, his-tagged protein, GDP-loaded (Homo sapiens, UniProt P01116, G12C) (assay: Biochemical assay: covalent binding to KRAS G12C analyzed by mass spectrometry). Conditions: compounds 1-47, measured at 24 h.
T1 construct: KRAS G12C 1-169, his-tagged protein, GDP-loaded
Method: Compounds were tested for activity as follows:
Compounds were diluted to 50× final test concentration in DMSO in 96-well storage plates. […] Reactions were mixed carefully and thoroughly by pipetting up/down with a 200 μl multi-channel pipettor. […] 5 μl of 2% formic acid (Fisher cat#A117) in DI H2O was then added to each well followed by mixing with a pipette. The plate was then resealed with aluminum seal and stored on dry ice until analyzed as described below.
The above described assays were analyzed by mass spectrometry according to the following procedure:
The MS instrument is set to positive polarity, 2 GHz resolution, and low mass (1700) mode and allowed to equilibrate for 30 minutes. The instrument is then calibrated, switched to acquisition mode and the appropriate method loaded.
After another 30 minute equilibration time, a blank batch (i.e., buffer) is run to ensure equipment is operating properly. The samples are thawed at 37° C. for 10 minutes, briefly centrifuged, and transfer to the bench top. Wells A1 and H12 are spiked with 1 μL 500 μM internal standard peptide, and the plates centrifuged at 2000×g for 5 minutes. The method is then run and masses of each individual well recorded.
The masses (for which integration data is desired) for each well are pasted into the platemap and exported from the analysis. Masses for the internal standards are exported as well. The data at 50 ppm is extracted for the +19 charge state, and identity of well A1 is assigned using the internal standard spike and integrated. Peak data is exported as a TOF list and the above steps are repeated individually, for the +20, 21, 22, 23, 24, and 25 charge states.

T1 sequence (P01116 1-169 isoform P01116-2 G12C): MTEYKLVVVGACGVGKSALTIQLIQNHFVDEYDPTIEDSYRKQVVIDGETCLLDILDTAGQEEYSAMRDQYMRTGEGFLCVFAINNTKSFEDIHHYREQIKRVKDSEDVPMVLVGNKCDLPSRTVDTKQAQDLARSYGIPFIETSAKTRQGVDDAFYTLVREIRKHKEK

Question: With C=CC(=O)N1CCN(c2ncnc3cc(Cl)c(-c4ccc(Cl)cc4Cl)cc23)CC1 [Compound I-6, 1-(4-(7-chloro-6-(2,4-dichlorophenyl)quinazolin-4-yl)piperazin-1-yl)prop-2-en-1-one] as the compound, how does the Binding % read?
Answer: Its Binding % is “+++ (+++indicates binding activity greater than 50% and up to 75%)”.

Same assay, conditions: compounds 48-246, measured at 2 h

Question: For C=CC(=O)N1CCN(c2ncnc3cc(-c4cc(NC)ccc4C)c(Cl)cc23)CC1 [Compound I-191, 1-(4-(6-chloro-7-(2-methyl-5-(methylamino)phenyl)quinazolin-4-yl)piperazin-1-yl)prop-2-en-1-one], which Binding % is on record?
Answer: Its Binding % is “+++ (+++indicates binding activity greater than 50% and up to 75%)”.

Question: For C=CC(=O)N1CCN(c2ncnc3cc(-c4cc(OC(F)(F)F)ccc4F)c(Cl)cc23)CC1 [Compound I-141, 1-(4-(6-chloro-7-(2-fluoro-5-(trifluoromethoxy)phenyl)quinazolin-4-yl)piperazin-1-yl)prop-2-en-1-one], which Binding % is on record?
Answer: Its Binding % is “+ (+indicates binding activity from 5% to 25%)”.

Question: C=CC(=O)N1CCN(c2ncnc3c(F)c(-c4ccccc4C(F)(F)F)c(Cl)cc23)CC1CC#N (centres unmarked) [Compound I-243, 2-(1-acryloyl-4-(6-chloro-8-fluoro-7-(2-(trifluoromethyl)phenyl)quinazolin-4-yl)piperazin-2-yl)acetonitrile] was tested. Which Binding % did it give?
Answer: Its Binding % is “++++ (++++indicates binding activity greater than 75%)”.

Question: With C=CC(=O)N1CCN(c2c(C#N)cnc3cc(-c4ccccc4O)c(Cl)cc23)CC1 [Compound I-182, 4-(4-acryloylpiperazin-1-yl)-6-chloro-7-(2-hydroxyphenyl)quinoline-3-carbonitrile] as the compound, how does the Binding % read?
Answer: The Binding % was “+++ (+++indicates binding activity greater than 50% and up to 75%)”.

Question: How did the Binding % turn out when C=CC(=O)N1CCN(c2ncnc3cc(-c4ccccc4CC4CC4)c(Cl)cc23)CC1 [Compound I-156, 1-(4-(6-chloro-7-(2-(cyclopropylmethyl)phenyl)quinazolin-4-yl)piperazin-1-yl)prop-2-en-1-one] was run?
Answer: Its Binding % is “++ (++indicates binding activity greater than 25% and up to 50%)”.

Question: C=CC(=O)N1CCN(c2ncnc3c(F)c(-c4c(O)ccc5ccccc45)c(Cl)cc23)CC1 [Compound I-235, 1-(4-(6-chloro-8-fluoro-7-(2-hydroxynaphthalen-1-yl)quinazolin-4-yl)piperazin-1-yl)prop-2-en-1-one] was tested. Which Binding % did it give?
Answer: The Binding % was “+++ (+++indicates binding activity greater than 50% and up to 75%)”.

Question: Which Binding % does the source give for C=CC(=O)N1CCN(c2ncnc3cc(-c4cnc(N)nc4C)c(Cl)cc23)CC1 [Compound I-190, 1-(4-(7-(2-amino-4-methylpyrimidin-5-yl)-6-chloroquinazolin-4-yl)piperazin-1-yl)prop-2-en-1-one] here?
Answer: The Binding % was “+ (+indicates binding activity from 5% to 25%)”.

Question: How did the Binding % turn out when C=CC(=O)N1CCN(c2ncnc3cc(-c4ccc(O)cc4C(F)(F)F)c(Cl)cc23)CC1 [Compound I-169, 1-(4-(6-chloro-7-(4-hydroxy-2-(trifluoromethyl)phenyl)quinazolin-4-yl)piperazin-1-yl)prop-2-en-1-one] was run?
Answer: Its Binding % is “+++ (+++indicates binding activity greater than 50% and up to 75%)”.

Question: With C=CC(=O)N1CCN(c2ncnc3cc(-c4ccccc4F)c(Cl)cc23)CC1C(N)=O (centres unmarked) [Compound I-120, 1-acryloyl-4-(6-chloro-7-(2-fluorophenyl)quinazolin-4-yl)piperazine-2-carboxamide] as the compound, how does the Binding % read?
Answer: The Binding % was “+++ (+++indicates binding activity greater than 50% and up to 75%)”.

Question: Which Binding % does the source give for N#C/C(=C\c1cncs1)C(=O)N1CCN(c2ncnc3cc(-c4ccccc4F)c(Cl)cc23)CC1 [Compound I-245, (E)-2-(4-(6-chloro-7-(2-fluorophenyl)quinazolin-4-yl)piperazine-1-carbonyl)-3-(thiazol-5-yl)acrylonitrile] here?
Answer: Its Binding % is “+ (+indicates binding activity from 5% to 25%)”.

Question: For C=CC(=O)N1CCN(c2ncnc3cc(-c4cccc5cnccc45)c(Cl)cc23)CC1 [Compound I-136, 1-(4-(6-chloro-7-(isoquinolin-5-yl)quinazolin-4-yl)piperazin-1-yl)prop-2-en-1-one], which Binding % is on record?
Answer: The Binding % was “++ (++indicates binding activity greater than 25% and up to 50%)”.

Question: How did the Binding % turn out when C=CC(=O)N1CCN(c2ncnc3cc(-c4ccc(F)cc4C(N)=O)c(Cl)cc23)CC1 [Compound I-193, 2-(4-(4-acryloylpiperazin-1-yl)-6-chloroquinazolin-7-yl)-5-fluorobenzamide] was run?
Answer: The Binding % was “++ (++indicates binding activity greater than 25% and up to 50%)”.

Same assay, conditions: compounds 247-342, measured at 30 min

Question: Which Binding % does the source give for C=CC(=O)N1CCN(c2nc(-c3ccn[nH]3)nc3c(F)c(-c4c(C)ccc5[nH]ncc45)c(Cl)cc23)CC1 [Compound 309, 1-(4-(6-chloro-8-fluoro-7-(5-methyl-1H-indazol-4-yl)-2-(1H-pyrazol-5-yl)quinazolin-4-yl)piperazin-1-yl)prop-2-en-1-one] here?
Answer: Its Binding % is “+++ (+++indicates binding activity greater than 50% and up to 75%)”.

Question: For C=CC(=O)N1CCN(c2ncnc3c(F)c(-c4ccc(F)cc4F)c(C)cc23)CC1 [Compound I-292, 1-(4-(7-(2,4-difluorophenyl)-8-fluoro-6-methylquinazolin-4-yl)piperazin-1-yl)prop-2-en-1-one], which Binding % is on record?
Answer: Its Binding % is “+ (+indicates binding activity from 5% to 25%)”.

Question: C=CC(=O)N1CCN(c2ncnc3c(F)c(-c4c(O)cccc4F)c(F)cc23)CC1 [Compound 299, 1-(4-(6,8-difluoro-7-(2-fluoro-6-hydroxyphenyl)quinazolin-4-yl)piperazin-1-yl)prop-2-en-1-one] was tested. Which Binding % did it give?
Answer: The Binding % was “+ (+indicates binding activity from 5% to 25%)”.

Question: C=CC(=O)N1CCN(c2ncnc3c(F)c(-c4ccccc4F)c(C(F)(F)F)cc23)CC1 [Compound I-271] was tested. Which Binding % did it give?
Answer: Its Binding % is “+++ (+++indicates binding activity greater than 50% and up to 75%)”.

Same assay, conditions: determined at 2 hrs

Question: With C=CC(=O)N1CC(N2CCN(C(=O)CNc3cc(CC)c(Cl)cc3O)CC2)C1 [II-55, 1-(3-(4-(2-(4-chloro-5-ethyl-2-hydroxyphenylamino)acetyl)piperazin-1-yl)azetidin-1-yl)prop-2-en-1-one] as the compound, how does the Binding % read?
Answer: Its Binding % is “++ (++indicates binding activity greater than 20%)”.

Question: With C=CC(=O)N1CC(N2CCN(C(=O)[C@@H](C)Nc3cc(CC)c(Cl)cc3O)CC2)C1 [II-70, (R)-1-(3-(4-(2-(4-chloro-5-ethyl-2-hydroxyphenylamino)-propanoyl)piperazin-1-yl)azetidin-1-yl)prop-2-en-1-one] as the compound, how does the Binding % read?
Answer: The Binding % was “++ (++indicates binding activity greater than 20%)”.

Same assay, conditions: determined at 24 hrs

Question: How did the Binding % turn out when C=CC(=O)N1CC(N2CCN(C(=O)CNc3cc(OC)c(Cl)cc3Cl)CC2)C1 [II-5, 1-(3-(4-(2-(2,4-dichloro-5-methoxyphenyl-amino)acetyl)-piperazin-1-yl)azetidin-1-yl)prop-2-en-1-one] was run?
Answer: Its Binding % is “+ (+indicates binding activity from 5% to 15%)”.

Question: C=CS(=O)(=O)N1CCC(N2CCN(C(=O)CNc3cc(Cl)c(Cl)cc3O)CC2)C1 (centres unmarked) [II-41, 2-(4,5-dichloro-2-hydroxyphenylamino)-1-(4-(1-(vinylsulfonyl)-pyrrolidin-3-yl)piperazin-1-yl)ethanone] was tested. Which Binding % did it give?
Answer: The Binding % was “++++ (++++indicates binding activity greater than 50%)”.

Question: C=CC(=O)N1CCN(C2CN(C(=O)CNc3cc(Cl)c(Cl)cc3O)C2)CC1 [II-39, 1-(4-(1-(2-(4,5-dichloro-2-hydroxyphenyl-amino)acetyl)azetidin-3-yl)piperazin-1-yl)prop-2-en-1-one] was tested. Which Binding % did it give?
Answer: Its Binding % is “+++ (+++indicates binding activity greater than 25% and up to 50%)”.

Question: How did the Binding % turn out when C=CC(=O)N1CCN(C(=O)c2cc(-c3cc(Cl)ccc3Cl)c(Cl)cc2OC)C(CO)C1 (centres unmarked) [III-7, 1-(3-(Hydroxymethyl)-4-(2′,5′,6-trichloro-4-methoxy-[1,1′-biphenyl]-3-carbonyl)piperazin-1-yl)prop-2-en-1-one] was run?
Answer: Its Binding % is “+++ (+++indicates binding activity greater than 20% and up to 30%)”.
